Common to all, as to assay type: cell-based, human
Series [1] has as its system telomeric transgenes (GFP, DsRed) in HeLa cells. Description: Telomeric gene silencing quantitative assay (GFP/DsRed reporters, cytofluorometry). The conditions noted are these: for transgene expression at telomeric positions: HeLa telomeric clones, agent in culture medium (TSA 1 μM 48 h, NaB 1 mM one week, 5azadC 3 μM 48 h, BrdU 50 μM one week). As to the method: The minimal CMV promoter and EGFP and DsRed coding sequences (Clontech) were PCR amplified and cloned in both orientations in pBS-SK2 containing telomeric repeats, kindly provided by J. Baur (2). Puromycin resistance gene expressed from the CAG promoter was inserted upstream of DsRed, in a telomere-distal position. Four Gal4 binding site were introduced between EGFP and DsRed expression cassettes at AscI and BamHI restriction sites, yielding pGE1min-Gal and pGE2 min-Gal. Control plasmids were generated by deletion of the telomeric repeats. Plasmids encoding the Gal DNA binding domain alone (pCD-Gal-DBD), or fused to the CTF1 Proline rich (pCMV-Gal-Pro) or to the VP16 (pCMV-Gal-VP16) transcriptional activation domains were as described previously (31). Plasmids encoding Gal-CTF1 fusion mutations were previously described by Alevizopoulos et al. (1995). Plasmids used to generate stable populations expressing Gal4 derivatives were obtained by cloning Gal-fusion genes or the BFP gene in an expression vector carrying the MAR 1-68 and the SV40 promoter (15).
HeLa cells (Clontech) were cultivated at 37° C. and 5% CO2 in DMEM-F12 with 10% fetal bovine serum (Gibco). Histone deacetylation or DNA methylation studies were performed by supplementing the cell culture medium with either 1 μM of Trichostatin A (TSA, Wako) for 48 h, 1 mM of Sodium butyrate (Sigma) for one week, 3 μM of 5-aza-2′-deoxycytidine (5azadC, Sigma) for 48 h, or 50 μM of Bromo-deoxyuridine (BrdU, Applichem) for one week. Transfections were performed using the Fugene 6 transfection reagent following instructions from the manufacturer (Roche). Stable clones were obtained by transfection of linearized plasmids pGEmin-Gal, pGE2 min-Gal or their respective controls. Cells were selected with 2 μg/mL of puromycin for three weeks, and all analyses were performed at least two weeks after the end of selection, to allow for the silencing of the telomeric locus. Transient transfections were performed by co-transfection of a Gal-fusion encoding plasmid and a BFP encoding plasmid at a molar ratio of 9:1. Cytofluorometric assays of the fluorescent reporter proteins were performed 48 h later. Stable populations expressing Gal-DBD/Gal-Pro were obtained by co-transfecting the Gal-fusion expression plasmid, a BFP-encoding plasmid, and a Zeocin resistance plasmid at 45:45:10 weight ratio. Zeocin resistant cells displaying high BFP levels were sorted twice, and the amount of zeocin was increased to 1800 μg/mL with increments of 200 μg/mL, to ensure consistent and elevated levels of fusion protein expression. Fluorescence in situ hybridization (FISH) was performed as described previously (12, 15) using two colors labeling of the reporter plasmids and of the telomeric repeats.
In order to analyze both telomere-insulated and non-insulated genes co-integrated at the same telomeric locus, we generated the reporter plasmids shown in FIG. 17A. Reporter vectors consist of the green fluorescent protein (GFP) and red fluorescent protein (DsRed) coding sequences placed on either side of four DNA binding sites for the yeast GAL4 protein. Each reporter gene was placed under the control of a minimal CMV promoter, in an orientation mediating either convergent or divergent directions of transcription. An antibiotic resistance gene was placed adjacent to DsRed, while telomeric (TTAGGG)n repeats were placed next to the GFP expression cassette. […] These constructs were transfected, and antibiotic-resistant cells having stably integrated the transgenes in their genome were selected and sorted into monoclonal populations. […] Fluorescence in situ hybridization (FISH) analysis indicated a telomeric or subtelomeric transgene position for all retained clones (see FIG. 6 in the supplemental material). […]

In series [2] the test system is Fr-MuLV LTR enhancer acting on GFP gene in HeLa cells. Description: Quantitative double-reporter (BFP/GFP) enhancer-blocking assay, transient transfection. The conditions noted are these: HeLa transient, 48 hours, GFP/BFP ratio, compared to full-length cHS4. The source says: Panel A is a schematic illustration of the retroviral-mediated integration of a transgene expression cassette into a host cell genome upon viral infection. This cassette contains a transgene under the control of a retroviral LTR and is flanked by a genetic insulator element shielding a cellular gene at the site of integration from LTR-mediated up-regulation. In order to mimic events leading to gene transfer-mediated insertional activation in a plasmid-based assay system (B), plasmid constructs were designed containing a BFP gene under the control of a viral LTR enhancer-promoter and a GFP gene under the control of a minimal CMV promoter (P). Inserting a potent insulator in between the two reporter genes should prevent the expression over-activation of the GFP gene without affecting the BFP expression, as it should shield cellular gene from up-regulation at the site of integration of a viral vector without interfering with transgene expression. In addition, in order to insulate the whole construct itself either from the viral enhancer bi-directional activation in transient transfection (circular form of the plasmid) or from a neighboring cellular enhancer at the site of integration in stable transfection (integrated linearized form of the plasmid), a copy of the cHS4 insulator is inserted at the edge of the reporter gene expression cassettes
The plasmid constructs described in FIG. 26B were obtained as follows. The EGFP gene expressed from a minimal CMV promoter was PCR amplified from a pcDNA3-EGFP plasmid excluding the CMV enhancer. The EBFP gene was PCR amplified from the pEBFP-NI plasmid (Clontech). Both reporters were subcloned in a pBS2-SKP (Stratagene). The Fr-MuLV LTR was inserted upstream from the EBFP gene such that transcription from the LTR is directed towards EBFP, and a copy of the 1.2 kb cHS4 was inserted downstream from the EGFP gene. Insulator sequences were inserted between the Fr-MuLV LTR and the minimal CMV promoter driving GFP expression. The 250 bp cHS4 core was PCR amplified from the full-length cHS4 (GenBank accession number: U78775.2, amplification from position 1 to 250). A series of neutral DNA spacers of various lengths were PCR amplified from the mouse utrophin cDNA (GenBank accession number: BC062163.1, amplifications form position 355 to positions 605 and 1555).
HeLa cells were transfected using FuGENE 6 reagent (Roche Diagnostics) according to the manufacturer's recommendations. Equimolar amounts of the different plasmids were transfected in each experiment (using the pBS2-SKP backbone plasmid as carrier). Circular plasmids were used for transient transfections, while plasmids were linearized before stable transfections. To obtain stable populations, the reporter constructs were co-transfected with a puromycin resistance-encoding plasmid (pPUR, Clontech) with a molar ratio of 10:1 and cells were grown in Dulbecco's modified Eagle medium containing 10% fetal bovine serum and 0.5 μg/mL puromycin (all from GIBCO). Fluorescence analyses were acquired on the FACS Cyan (Dakocytomation) with the settings of 450 V on the SSC channel, 340 V for the GFP and 450 V for the BFP. Data analysis of the double-reporter assay consisted in normalizing the GFP fluorescence to the BFP fluorescence for each cell and averaging these values over the total cell population. FACS analyses were performed 48 hours after transfection for transient expression and after 2 to 3 weeks of selection post-transfection for stable expression. Data processing was performed using the FlowJo software.
Therefore, we designed a two-reporter gene assay whereby the potency of enhancer-blocker insulators can be quantified, and in which polar insulating activities can be distinguished from enhancer inhibition or from global gene silencing effects. […]

In series [3] the test system is histones H3, H4, H2A.Z on GFP and DsRed sequences in HeLa clones. Description: Chromatin immunoprecipitation of histone modifications on telomeric transgenes. To be noted: clone B09. The method, then: Antibodies against acetylated H3 (06-599), acetylated H4 (06-866) and trimethylated H3K9 (07-442) were obtained from Upstate biotechnology. Antibody against H2A.Z (ab4174) was purchased from Abcam. HeLa cells were harvested at a confluence of 90% and cross-linked with 1% formaldehyde for 4 min. After lysis of the nuclei, chromatin was sonicated to obtain fragments of ˜1000 pb and digested with BamHI. The chromatin solution was diluted to a volume of 300 μL in a buffer containing 200 mM HEPES, 2M NaCl, 20 mM EDTA, 0.1% NaDoc, 1% Triton X-100, 1 mg/mL BSA. Chromatin fragments were precleared 30 min with 10 μL rProtein A Sepharose (Amersham Biosciences) and supernatants were incubated at 4° C. overnight with 5 μL of antibody. Immunoprecipitated complexes were incubated with 10 μL rProtein A Sepharose and pellets were washed 3 times with IP buffer (20 mM HEPES, 0.2M NaCl, 2 mM EDTA, 0.1% NaDoc, 1% Triton X-100). Immunoprecipitated complexes were eluted in 100 mM Tris/HCl, 1% SDS and cross-links were reversed at 65° C. for 1 hour. Precipitated DNAs were eluted in 50 μL TE.
Quantitative PCR was performed on 7700 Sequence detector (Applied Biosystems) using SYBR Green reagent (Eurogentec). Chromatin immuno-precipitation samples and chromatin input were diluted 10 fold before analysis. […]

Entries after “also recorded” stand apart in the source; their conditions may differ.

Regarding “CTF1: native transcription factor of the CTF/NF1 family, transiently expressed”, the “reporter gene activation upon transient CTF1 expression” value in series [1] (reporter with seven CTF/NF1 binding sites, internal chromosomal location) is on record as “commensurate activation occurred for both reporter genes”. The “boundary effect upon transient CTF1 expression” value in series [1] (reporter with seven CTF/NF1 binding sites, telomeric transgenes) was “boundary effect was observed”.

Take `O=c1[nH]c(=O)n([C@H]2C[C@H](O)[C@@H](CO)O2)cc1Br` [BrdU, Bromo-deoxyuridine]: the “transgene expression at telomeric positions” value (“transgene expression” below) in series [1] is on record as “increase in expression of the reporter genes, but to a lesser extent than that noted with TSA”.

Consider “One binding site (20 bp element): single CTF/NF1 binding site from adenovirus type II origin of replication, 20 bp (DNA TTGGCAACGTGCCATAAGCA; listed as DNA, chemistry not given here)”, for which the “enhancer-blocking (insulator) activity” value in series [2] is “responsible for most of the effect”; in series [2] (listed as single binding site of 20 bp) it was “approximately half of the insulating effect seen with the full-length cHS4”. For `Nc1ncn([C@H]2C[C@H](O)[C@@H](CO)O2)c(=O)n1` [5azadC, 5-aza-2′-deoxycytidine], in series [1], the “transgene expression” value is given as “little effect on transgene expression”. For the molecule `CC(/C=C/C(=O)NO)=C\[C@@H](C)C(=O)c1ccc(N(C)C)cc1` [TSA, Trichostatin A], the “transgene expression” value in series [1] is “strongly increase transgene expression”. Also, in series [3], the “H3K9Me3 on DsRed and GFP sequences (ChIP)” value is listed as “increase”; the “H3 and H4 acetylation on DsRed and GFP sequences (ChIP)” value was “increase of the acetylation of both DsRed and GFP”. For the molecule `CCCC(=O)[O-].[Na+]` [NaB, Sodium butyrate], the “transgene expression” value in series [1] is listed as “lower unsilencing effects in some clones”. Also, the telomeric gene expression result in series [1] (clone D17) is given as “little effect on telomeric gene expression”.

B1: CTCF cons: 6 repeats of the consensus CTCF binding site separated by random linkers (nucleic acid)
DNA: GCGATGCCGCCCCCTGGTGGCCAGTAATCGCAAGGCTAAGTAATCACTGCCCCCTGGTGGCCGCCAGTCTGATACGCGTTTTACAACCGCCCCCTGGTGGCCGTGGGAGACATCTAGTGCACGAGAGTGCCCCCTGGTGGCCAAACCGTAGCCTAGGCATATTGTACTGCCCCCTGGTGGCCGGCAATATGGCTAGCGATGACTCGGCGCCCCCTGGTGGCCACTACGTTCTAGTG
modifications: CTCF consensus binding sites
For B1, the “enhancer-blocking (insulator) activity” value is recorded as “already showed significant activity” in series [2] and “able to show the same activity, with no significant improvement” in series [2] (listed as Consensus binding sites for CTCF).

B2: 12×CTCF: 12 copies of consensus CTCF binding sites with random spacers, 472 bp (nucleic acid)
DNA: GCGATGCCGCCCCCTGGTGGCCAGTAATCGCAAGGCTAAGTAATCACTGCCCCCTGGTGGCCGCCAGTCTGATACGCGTTTTACAACCGCCCCCTGGTGGCCGTGGGAGACATCTAGTGCACGAGAGTGCCCCCTGGTGGCCAAACCGTAGCCTAGGCATATTGTACTGCCCCCTGGTGGCCGGCAATATGGCTAGCGATGACTCGGCGCCCCCTGGTGGCCACTACGTTCTAGTGGCGATGCCGCCCCCTGGTGGCCAGTAATCGCAAGGCTAAGTAATCACTGCCCCCTGGTGGCCGCCAGTCTGATACGCGTTTTACAACCGCCCCCTGGTGGCCGTGGGAGACATCTAGTGCACGAGAGTGCCCCCTGGTGGCCAAACCGTAGCCTAGGCATATTGTACTGCCCCCTGGTGGCCGGCAATATGGCTAGCGATGACTCGGCGCCCCCTGGTGGCCACTACGTTCTAGTG
modifications: Consensus binding sites for CTCF (12copies)
B2: the “enhancer-blocking (insulator) activity” value in series [2] is “as potent as the complete 1.2 kb cHS4 element; also recorded: comparable to the one of the full length cHS4; also recorded: fully reproduced the insulation effect; also recorded: able to reconstitute the enhancer blocking activity mediated by the full-length 1.2 kb cHS4”.

The record behind these values is US20110294873A1, “Gene Transfer Vectors Comprising At Least One Isolated DNA Molecule Having Insulator Or Boundary Properties And Methods To Identify The Same” (UNIVERSITÉ DE LAUSANNE, priority 2008, published 2011).
